Assay results: patent EP1837033A1, “REMEDY FOR DIABETES CONTAINING Cdk5 INHIBITOR” (Tomizawa, Kazuhito, priority 2004, dated 2006)

What was measured:
MIN6 cells [1] = assay: Insulin secretion of MIN6 cells in KRB, radioimmunoassay (Example 4); assay type: cell-based, rat; conditions: for high-glucose-stimulated insulin secretion: preincubated 30 minutes, stimulated 1 hour with 16.7 mM glucose
islets of Langerhans = assay: Insulin secretion from isolated islets of Langerhans; assay type: cell-based, rats; conditions: for insulin secretion in islets of Langerhans (insulin secretion percentage): low glucose 3.3 mM, 200 nM glibenclamide, 10 µM olomoucine, fig. 5; for insulin secretion: 10 µM, Ringer solution with a high glucose concentration, fig. 4
Protocol: In accordance with Goto et al. (Transplantaion, vol. 43, pp. 725 to 730, 1987), islets of Langerhans were isolated from 6-week-old male Wister rats. The rats were etherized so as to be subjected to thoracotomy. The common bile duct of each rat was removed and a collagenase solution (320 U/ml, Sigma) was slowly injected into the pancreas. Then, the swollen pancreas was excised. The collagenase-containing pancreas was digested at 37°C in a water bath for 30 minutes, followed by dispersion with the use of a pipet. Thereafter, islets of Langerhans were isolated based on the concentration gradient of a Ficoll solution (Amersham Pharmacia). The islets of Langerhans were incubated while being kept at 37°C for 30 minutes in a Ringer solution (119 mM sodium chloride, 4.74 mM potassium chloride, 1.19 mM sodium dihydrogen phosphate, 25 mM sodium bicarbonate, 10 mM HEPES, 2.54 mM calcium chloride, 1.19 mM magnesium chloride, and 0.2% BSA) saturated with a mixed gas of 95% O2 and 5% CO2.
30 minutes after replacement, insulin contained in each stimulation solution was detected using an insulin detection kit (Ab Bead Insulin, Eiken Chemical Co., Ltd.) in accordance with protocols of the kit. The experiment was conducted for each concentration group (n = 6).
30 minutes after replacement, insulin contained in each stimulation solution was using an insulin detection kit (Ab Bead Insulin, Eiken Chemical Co., Ltd.) in accordance with protocols for the kit.
Then, controls (n = 6), samples A (n = 6), samples B (n = 6), and samples C (n = 6) were prepared. […] Further, islets of Langerhans were subjected to ultrasonication for cell disruption, and insulin contents of islets of Langerhans were detected using an insulin detection kit (Ab Bead Insulin, Eiken Chemical Co., Ltd.) in accordance with protocols for the kit in a manner similar to that used above.
In addition, the insulin secretion percentage was calculated by the following formula. Insulin secretion percentage; = (Amount of insulin secreted(μU/ml))/(Amount of insulin in islets of Langerhans(μU/ml)) × 100(%) [formula]

[2] = test system: α1C subunit at Ser783 of L-VDCC; assay: Phosphorylation of Ser783 of the L-VDCC α1C subunit in MIN6 cells (immunoprecipitation, Western blotting); assay type: cell-based, rat; conditions: MIN6 cells treated with 50 µM olomoucine, fig. 8d
Protocol: Recombinant cDNA encoding LoopII·III of a human α1C subunit of VDCC was subcloned into pGEX6P (Amersham Bioscience). Serine783 was mutated into alanine according to the manufacturer's instructions (Stratagene). Purified recombinant proteins were phosphorylated in vitro with the use of Cdk5/p35 (Upstate) by a conventional method (Tomizawa, K. et al. J. Cell. Biol. 163, 813-824 (2003)). […] The expression of the phosphorylated α1C subunit at Ser783 was measured using phosphorylation-specific antibodies obtained from serum of a rabbit to which CLARTApSPEKK peptide had been injected. The total amount of the subunits was detected by Western blotting analysis with the use of anti-α1C subunit antibodies (Chemicon).
Immunoprecipitation of Cav1.2 was carried out. Phosphorylation of serine 783 was measured by Western blotting.

MIN6 cells [3] = assay: Ca2+ imaging (fura-2) in MIN6 cells; assay type: cell-based, rat; conditions: 50 µM olomoucine
Protocol: MIN6 cells were cultured in a DMEM containing 15% fetal bovine serum, 25 mM glucose, […] 2-mercaptoethanol, and 2 mM glutamine (Lilla, V. et al. Endocrinology 144, 1368-1379 (2003); and Minami, K. et al. Am. J. Physiol. Endocrinol. Metab. 279, 773-781 (2000)). The cells (1 × 10^6) were seeded on a 35-mm glass bottom dish (IWAKI, Tokyo, Japan), followed by cell proliferation for 48 hours. For Ca^2+ imaging, the cells were preincubated at 37°C for 2 hours in a modified Krebs-Ringer bicarbonate HEPES buffer solution (KRB: 125 mM Nacl, 4.74 mM KCl, 1 mM CaCl2, […] KH2PO4, 5 mM NaHCO3, 25 mM HEPES (pH 7.4), and 0.1% BSA) containing 2.8 mM glucose. […] The resulting solution was replaced with KRB containing 17.6 mM glucose or KRB containing 100 nM glibenclamide. The Ca^2+ level of the cells was using an Axiovert 200 inverted microscope (Carl Zeiss Microlmaging) by a dual excitation wavelength method (340/380).
After washing, the cells were stimulated with 17.6 mM glucose (figs. 7a-1 and 7a-2) or 100 nM glibenclamide (figs. 7b-1 and 7b-2). Ca^2+ concentrations were presented as percentages of 340/380 nm fluorescent emission. The graphs (fgs. 7a-1 and 7b-1) show representative traces of changes in Ca^2+ concentration. The graphs (figs. 7a-2 and 7b-2) show the maximum Ca^2+ influxes. Data for each of 20 to 30 cells were collected after each experiment. The mean value of the total values was calculated and normalized every 3 to 4 experiments (*P < 0.01).

MIN6 cells [4] = assay: Insulin secretion of MIN6 cells in Ringer solution (Example 3); assay type: cell-based, rat; conditions: 17.6 mM glucose, 20 µM, 2 hours, fig. 3
Protocol: MIN6 cells capable of secreting insulin (provided by Professor Susumu Seino, Doctral Program in Advanced Biomedical Applications, Department of Cellular and Molecular Medicine, Graduate School of Medicine, Chiba University, 1-33, Yayoi-cho, Inage-ku, Chiba-shi, Chiba, Japan) were cultured in accordance with the method of Mae et al. (American Journal of Physiological Endocrinal Metabolism, 2000, vol. […], pp. 773 to 781). MIN6 cells (5 × 10^5) were in a DMEM medium (GIBCO) and on a 35-mm culture dish (Corning Incorporated), followed by culture for 2 days in an incubator (5% CO2, SANYO).
After culture for 2 hours, insulin contained in medium was detected using an insulin detection kit (Ab Insulin, Eiken Chemical Co., Ltd.) in accordance with protocols for the kit.

L-VDCC = assay: Whole-cell Ca2+ currents via VDCCs of MIN6 cells (electrophysiology); assay type: cell-based, rat; conditions: 50 µM olomoucine
[5] = test system: diabetes mouse models KK-Ay; assay: Hypoglycemic effects in diabetes mouse models KK-Ay; assay type: in vivo; conditions: KK-Ay mice, fig. 13
Protocol: 8-week-old ale KK-Ay mice (32 individuals, CLEA Japan, Inc.) were divided into groups (8 individuals each) with the proviso that there would be no differences among groups in terms of blood glucose levels, Hypoglycemic effects of roscovitine (LC Laboratories), which is a CDK5 inhibitor, were examined.
In order to prepare roscovitine at doses of 1 mg/kg, 10 mg/kg, and 100 mg/kg, a suspension (0.5% methylcellulose/physiological saline solution) was used. Then, subcutaneous administration of roscovitine was carried out once daily for 2 consecutive weeks. A solvent alone was administered to a control group. Blood glucose levels were measured one day before day 0 and on days 3, 7, 10, and 14 with the use of a blood glucose monitor (Free Style, NIPRO).
In fig. 13, the unit of the vertical axis is indicated by "mg/dL." In fig. 14, the unit of the vertical axis is indicated by "g."

Cdk5 = Cdk5 (Homo sapiens, UniProt Q00535); conditions: cited from earlier work
Cdk5, sequence (Q00535 whole entry, species assumed): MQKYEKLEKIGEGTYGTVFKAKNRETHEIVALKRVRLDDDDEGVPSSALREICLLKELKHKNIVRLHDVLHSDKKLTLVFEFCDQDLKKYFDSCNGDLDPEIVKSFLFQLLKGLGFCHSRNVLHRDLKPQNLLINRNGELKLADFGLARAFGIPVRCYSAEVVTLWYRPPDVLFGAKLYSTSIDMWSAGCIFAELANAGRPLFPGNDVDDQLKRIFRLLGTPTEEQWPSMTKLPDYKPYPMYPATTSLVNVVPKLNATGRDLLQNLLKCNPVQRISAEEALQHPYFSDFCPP
Cdk5, sequence (Q15078 whole entry partner, species assumed): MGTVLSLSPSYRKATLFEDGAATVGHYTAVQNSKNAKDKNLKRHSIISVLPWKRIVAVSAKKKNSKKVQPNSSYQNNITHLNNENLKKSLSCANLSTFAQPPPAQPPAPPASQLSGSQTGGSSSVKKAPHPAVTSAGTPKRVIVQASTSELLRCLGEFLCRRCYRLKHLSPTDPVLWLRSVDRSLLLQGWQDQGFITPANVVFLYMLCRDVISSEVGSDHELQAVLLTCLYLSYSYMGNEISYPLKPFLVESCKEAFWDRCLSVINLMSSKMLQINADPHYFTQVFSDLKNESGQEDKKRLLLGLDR

## CC1=NS(=O)(=O)c2cc(Cl)ccc2N1 [diazoxide]
MIN6 cells [1]; 100 µM diazoxide, 50 µM olomoucine, 17.6 mM glucose, fig. 6g
  Olomoucine-dependant promotion of high-glucose-stimulated insulin secretion: completely suppressed

## C=C[C@@]1(C)CC(=O)[C@]2(O)[C@@]3(C)[C@@H](O)CCC(C)(C)[C@@H]3[C@H](O)[C@H](OC(C)=O)[C@@]2(C)O1 [forskolin]
MIN6 cells [1]; 10 µM forskolin, 50 µM olomoucine, KRB 2.8 mM glucose, fig. 6h, unit not given
  forskolin-stimulated insulin secretion: 122.7 ± 9.3

## COc1ccc(Cl)cc1C(=O)NCCc1ccc(S(=O)(=O)NC(=O)NC2CCCCC2)cc1 [glibenclamide]
MIN6 cells [1]; KRB high glucose 17.6 mM, fig. 6f
  insulin secretion: 412.5 ± 35.7 µg/h
MIN6 cells [1]; KRB low glucose 2.8 mM, fig. 6e
  insulin secretion: 116.3 ± 1.0 µg/h
Islets of Langerhans; 30 minutes
  insulin secretion in islets of Langerhans (insulin secretion percentage): significant increase in insulin secretion

## Cn1cnc2c(NCc3ccccc3)nc(NCCO)nc21 [olomoucine]
[2]
  phosphorylation of Ser783: decrease in phosphorylation
MIN6 cells [1]; 2.8 mM glucose, 1 hour, fig. 6c
  insulin secretion under low glucose conditions: insulin secretion was not promoted
MIN6 cells [1]; effect of 50 µM olomoucine, 10 µM forskolin, 2.8 mM glucose, P > 0.05, fig. 6h
  insulin secretion induced by forskolin: did not influence
MIN6 cells [1]; effect of olomoucine, low glucose 2.8 mM, fig. 6e
  insulin secretion induced by glibenclamide: significantly promoted
MIN6 cells [1]; fig. 6c
  high-glucose-stimulated insulin secretion: promoted high-glucose-stimulated insulin secretion in a dose-dependent manner
MIN6 cells [3]
  Ca2+ influxes in the absence of glucose and glibenclamide: did not influence
MIN6 cells [3]; 100 nM glibenclamide, maximum Ca2+ influx normalized, figs. 7b-1 and 7b-2
  Ca2+ influxes induced by glibenclamide: 129 ± 4.5%
MIN6 cells [3]; 17.6 mM glucose, maximum Ca2+ influx normalized, figs. 7a-1 and 7a-2
  Ca2+ influxes induced by glucose: 114.4 ± 2.1%
MIN6 cells [4]
  insulin secretion of MIN6 cells: action of promoting insulin secretion
L-VDCC; depolarization to 10 mV, control cells -15.1 ± 1.67 A/F
  Peak Ca2+ currents: -20.1 ± 1.59 A/F
L-VDCC; step pulses from -40 mV to +60 mV, fig. 7c
  inward Ca2+ currents: enhanced inward Ca^2+ currents
Islets of Langerhans
  insulin secretion: significantly promoted insulin secretion
Islets of Langerhans; 3.3 mM glucose (low), olomoucine at different concentrations, 30 minutes, fig. 1
  insulin secretion of islets of Langerhans: had no influence at all
Islets of Langerhans; 17.3 mM glucose (high), olomoucine at different concentrations, 30 minutes, versus absence of olomoucine, fig. 2
  insulin secretion levels: significantly increased
Islets of Langerhans; isolated islets of Langerhans, fig. 9a
  secretion at low glucose levels: did not influence
Islets of Langerhans; 30 minutes
  insulin secretion in islets of Langerhans (insulin secretion percentage): did not influence insulin secretion
Islets of Langerhans; olomoucine at concentrations shown in fig. 9a
  glucose-stimulated insulin secretion in isolated islets of Langerhans: promoted glucose-stimulated insulin secretion in a dose-dependent manner

## CC[C@H](CO)Nc1nc(NCc2ccccc2)c2ncn(C(C)C)c2n1 [roscovitine]
MIN6 cells [1]; fig. 6c
  high-glucose-stimulated insulin secretion: also confirmed
MIN6 cells [4]
  insulin secretion of MIN6 cells: promoted
[5]; 1 mg/kg subcutaneous once daily for 2 consecutive weeks
  blood glucose levels: obvious hypoglycemic effects were not observed
[5]; 10 mg/kg subcutaneous once daily for 2 consecutive weeks
  blood glucose levels: obvious hypoglycemic effects were not observed
[5]; 100 mg/kg subcutaneous once daily for 2 consecutive weeks
  blood glucose levels: statistically significant decreases

## iso-olomoucine
Cdk5
  Cdk5 inhibitory effect: does not have a Cdk5 inhibitory effect
MIN6 cells [1]; 20 µM, fig. 6d
  insulin secretion: did not influence insulin secretion
Islets of Langerhans
  insulin secretion: did not promote insulin secretion at all
